From PubChem BioAssay (NCI)
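Each compound was tested at five concentrations against cells in 96-well plates for 48 hours. TGI: concentration producing complete growth inhibition.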

Legend:
Test in all cases: inhibition of tumour cell growth, NCI panel, 48 h
[1] = test system: DLD-1 colon
[2] = test system: XF 498 CNS
[3] = test system: DMS 273 small cell lung
[4] = test system: M19-MEL melanoma
[5] = test system: HOP-18 NSCLC
[6] = test system: LXFL 529 NSCLC
[7] = test system: KM20L2 colon
[8] = test system: RXF-631 renal
[9] = test system: SNB-78 CNS
[10] = test system: DMS 114 small cell lung

CC(=O)c1ccccc1NC(=O)C(=O)C(C(=O)c1ccccc1-c1ccccc1)C1OC(=O)c2ccccc21 (stereo not drawn)
TGI [1]: 48 µM
TGI [2]: 24.3 µM
TGI [3]: > 100 µM
TGI [4]: 48.2 µM
TGI [5]: 36.1 µM
TGI [6]: 31.3 µM
TGI [7]: 53 µM
TGI [8]: > 100 µM
TGI [9]: > 100 µM

CC1=NN2C(c3ccc([N+](=O)[O-])cc3)=CSC2=NC(C)(C)C1
TGI [1]: > 100 µM
TGI [10]: > 100 µM
TGI [2]: > 100 µM
TGI [3]: > 100 µM
TGI [4]: > 100 µM
TGI [5]: > 100 µM
TGI [6]: > 100 µM
TGI [7]: > 100 µM
TGI [8]: > 100 µM
TGI [9]: > 100 µM

C[C@]12CC[C@H](O)CC1=CC[C@@H]1C2CC[C@]2(C)C(=O)NC(=O)CC12 (stereo partly drawn)
TGI [1]: > 100 µM
TGI [10]: > 100 µM
TGI [2]: > 100 µM
TGI [3]: > 100 µM
TGI [4]: > 100 µM
TGI [5]: > 100 µM
TGI [6]: > 100 µM
TGI [7]: > 100 µM
TGI [8]: > 100 µM
TGI [9]: > 100 µM

CC(C)OC/N=C(/N)NC#N
TGI [1]: > 100 µM
TGI [10]: > 100 µM
TGI [2]: > 100 µM
TGI [3]: > 100 µM
TGI [4]: > 100 µM
TGI [5]: > 100 µM
TGI [6]: > 100 µM
TGI [7]: > 100 µM
TGI [8]: > 100 µM
TGI [9]: > 100 µM

C(=C\C(Sc1ccccc1)c1ccccc1)/NNC1=NC(c2ccccc2)C(c2ccccc2)=NN1 (stereo not drawn)
TGI [1]: 56 µM
TGI [10]: > 100 µM
TGI [2]: > 100 µM
TGI [3]: > 100 µM
TGI [4]: > 100 µM
TGI [5]: > 100 µM
TGI [7]: > 100 µM
TGI [8]: > 100 µM
TGI [9]: > 100 µM

COc1c(I)c(OC)c2c(c1I)O[C@@H]1OCC[C@H]21
TGI [1]: > 100 µM
TGI [10]: 70.5 µM
TGI [2]: 66.4 µM
TGI [3]: 56.5 µM
TGI [4]: 57.7 µM
TGI [5]: 81 µM
TGI [6]: 63.7 µM
TGI [7]: > 100 µM
TGI [8]: > 100 µM
TGI [9]: > 100 µM
